What was measured:
[1] = tested on: mutans streptococci; assay: in vitro growth and adherence of cariogenic bacteria (UCSF School of Preventive Dentistry study); format: cell-based; conditions: 0.5% zinc solution
From the text: (§1) In another preferred embodiment of the invention, the formulation includes one or more zinc salt or other source of the zinc ion. Metabolically, zinc is a critical nutrient in the synthesis of insulin and the metabolism of carbohydrates. From a dental perspective, cariogenic bacteria enzymatically produce an insoluble glucan deposit from simple sugars present in the mouth that firmly adheres to the enamel tooth surface.

[2] = tested on: sobrinus streptococci; assay: as above; format: cell-based; conditions: 0.5% zinc solution
From the text: as §1

[Cl-].[Cl-].[Zn+2] [zinc chloride]
inhibited: adherence of mutans streptococci [1] | growth of mutans streptococci [1] | adherence of sobrinus streptococci [2] | growth of sobrinus streptococci [2]

zinc ascorbate
inhibited: adherence of mutans streptococci [1] | growth of mutans streptococci [1] | adherence of sobrinus streptococci [2] | growth of sobrinus streptococci [2]

From US20030004211A1, “Carbohydrate modifying agent and drinks containing the modifying agent” (priority 2001, published 2003)
